Test results published in ChEMBL document CHEMBL5674860, “Optimized Dual-Glo Assay to identify co-culture-induced drug vulnerabilities in 3D CRC models” (2024).
Values joined by “and” are separate entries in the source; they are usually repeats but may differ in a detail not shown here. Equal values may be shown once.

What was measured:
Assay type in all cases: functional, Homo sapiens
Design in all cases: dose or concentration left out as unconfirmed
Colon cancer organoid [1] = assay: Optimized Dual-Glo assay to identify co-culture induced drug vulnerabilities using donated chemical probes and chemogenomics kinase set in O20 CRC organoid and F20 CAF mono and co-culture. […] Cell viability is reported both mono and co-culture models.
Colon cancer organoid [2] = assay: Optimized Dual-Glo assay to identify co-culture induced drug vulnerabilities using donated chemical probes and chemogenomics kinase set in O06 CRC organoid and F06 CAF mono and co-culture. […] Cell viability is reported both mono and co-culture models.
Colon cancer organoid [3] = assay: Optimized Dual-Glo assay to identify co-culture induced drug vulnerabilities using donated chemical probes and chemogenomics kinase set in O14 CRC organoid and F14 CAF mono and co-culture. […] Cell viability is reported both mono and co-culture models.
[4] = Culture type Co-Culture, Transduced with Lucferase2-P2A-EGFP lentivirus
[5] = Culture type Co-Culture, Transduced with Renilla-dsRed lentivirus
[6] = Culture type Mono-Culture, Transduced with Lucferase2-P2A-EGFP lentivirus
[7] = Culture type Mono-Culture, Transduced with Renilla-dsRed lentivirus

Row | Compound | Cell Viability (Colon cancer organoid [1]; [4]) | Cell Viability (Colon cancer organoid [1]; [5]) | Cell Viability (Colon cancer organoid [1]; [6]) | Cell Viability (Colon cancer organoid [1]; [7]) | Cell Viability (Colon cancer organoid [2]; [4]) | Cell Viability (Colon cancer organoid [2]; [5]) | Cell Viability (Colon cancer organoid [2]; [6]) | Cell Viability (Colon cancer organoid [2]; [7]) | Cell Viability (Colon cancer organoid [3]; [4]) | Cell Viability (Colon cancer organoid [3]; [5]) | Cell Viability (Colon cancer organoid [3]; [6]) | Cell Viability (Colon cancer organoid [3]; [7])
1 | Cc1c(Oc2ccc(F)cc2)c(OC(C)C)nn1-c1ccc(C2CC2)cn1 [IPP/CNRS-A019] | 91.1919% | 118.396% | 98.5803% | 101.782% | 92.46% | 90.9232% | 83.1676% | 103.472% | 97.1985% | 110.863% | 115.046% | 92.4816%
2 | CC1=C(C(=O)Nc2cc3cn[nH]c3cc2F)C(c2ccc(C(F)(F)F)cc2)CC(=O)N1 (stereo unspecified) | 133.522% | 94.2958% | 98.8555% | 95.2955% | 110.512% | 74.1449% | 112.137% | 107.646% | 79.4624% | 111.728% | 79.1311% | 103.404%
3 | CNC(=O)c1cc(C(=O)N[C@H]2[C@@H]3COC[C@@H]32)cc2c1O[C@H](CF)[C@H]2c1ccccc1 [GSK973] | 97.8368% | 135.509% | 77.6772% | 131.324% | 110.942% | 170.924% | 57.9314% | 146.399% | 93.0111% | 167.902% | 105.165% | 155.71%
4 | CCn1cc(-c2cccc(C(F)(F)F)c2)c2sc(C(=N)NC3CCS(=O)(=O)CC3)cc2c1=O | 60.6992% | 124.144% | 95.8372% | 109.255% | 95.4713% | 165.165% | 69.4061% | 200.249% | 120.643% | 201.969% | 99.2111% | 135.353%
5 | COc1cccc2c1C(=O)c1c(O)c3c(c(O)c1C2=O)CC(O)(C(=O)CO)CC3OC1CC(N)C(O)C(C)O1.Cl (stereo unspecified) | 5.379% | 237.178% | 7.074% | 81.7547% | 14.9439% | 235.56% | 8.313% | 104.821% | 1.614% | 163.438% | 2.622% | 97.5605%
6 | Cc1noc([C@H]2C[C@@H](c3ccc(C(F)(F)F)cc3)CN(C(=O)N3CCS(=O)(=O)C3)C2)n1 [BAY-448] | 115.252% | 84.5218% | 119.935% | 108.615% | 105.176% | 127.928% | 104.997% | 116.857% | 96.3881% | 112.512% | 127.621% | 97.5385%
7 | Cl.Cl.c1ccc([C@@H]2C[C@H]2NC2CCNCC2)cc1 | 42.5951% | 97.3617% | 75.8314% | 98.3245% | 78.4875% | 97.0217% | 85.9094% | 106.355% | 82.3558% | 127.479% | 88.7328% | 113.061%
8 | Cl.O=C([C@@H](Cc1cccc(C(F)(F)F)c1)NS(=O)(=O)c1cc(F)c2c(c1)CCNC2)N1CCCC1 | 152.168% | 150.248% | 145.099% | 80.4285% | 84.043% | 115.078% | 78.4722% | 93.27% | 99.1964% | 106.618% | 90.5758% | 109.686%
9 | CCCS(=O)(=O)c1nc(NC2CC2)cc(-c2ccc3c(ccn3C3CC(C)(C)NC(C)(C)C3)c2)n1 | 90.8821% and 132.572% | 94.2313% and 119.463% | 112.848% and 138.911% | 68.5534% and 89.7285% | 80.022% and 93.4216% | 88.9327% and 142.491% | 57.3495% and 53.1993% | 66.0436% and 80.8259% | 89.4811% and 97.6343% | 131.118% and 106.572% | 78.7545% and 88.3769% | 100.347% and 100.989%
10 | COc1cc(Nc2ncc3c(n2)-c2ccc(Cl)cc2C(c2c(F)cccc2OC)=NC3)ccc1C(=O)O [ALISERTIB] | 6.089% | 322.747% | 10.9419% | 116.531% | 20.0499% | 286.415% | 8.923% | 120.563% | 16.1373% | 168.728% | 26.2121% | 103.392%
11 | CC(C)(O)c1cncc(-c2nc3ccc(F)cc3n2C2CC2)c1 [MSD-CYP11B2] | 80.0796% | 128.543% | 82.8695% | 83.5223% | 83.611% | 134.058% | 92.3684% | 91.4752% | 60.604% | 97.9336% | 96.2618% | 98.7246%
12 | COc1c(OCCCN2CCOCC2)ccc2c1N=C(NC(=O)c1cnc(N)nc1)N1CCN=C21 [COPANLISIB] | 2.276% | 117.524% | 0.6907% | 109.388% | 1.487% | 40.0213% | 1.127% | 24.3347% | 3.879% | 63.1617% | 2.323% | 50.5605%
13 | Cc1cc(C)cc([C@H]2c3cc(C)ccc3NC(=O)CN2C(=O)c2ccc(Br)s2)c1 | 134.503% | 98.7461% | 124.059% | 79.4319% | 94.0417% | 115.465% | 159.24% | 104.104% | 84.3524% | 110.086% | 124.101% | 91.0337%
14 | Cc1noc(C)c1-c1cnc2c(-c3ccc(C(=O)O)cc3)cn([C@@H](C)c3ccccn3)c2c1 [PLX-51107] | 17.6563% | 177.825% | 24.073% | 120.563% | 26.8486% | 312.702% | 23.3668% | 265.011% | 32.5617% | 348.195% | 30.1969% | 207.472%
15 | CN(C)C(=O)Cn1cc(-c2ccc(-c3nnc4ccccn34)cc2)cn1 | 165.558% | 52.6743% | 140.63% | 85.2439% | 105.212% | 110.192% | 69.5948% | 88.4504% | 93.0602% | 86.1026% | 137.129% | 87.3202%
16 | COc1cc(-c2cn(C)c(=O)c3cnccc23)c(OC)cc1CN(C)C | 61.2069% | 139.676% | 83.2777% | 82.5544% | 79.252% | 108.934% | 73.0791% | 96.9165% | 86.2085% | 136.409% | 67.8836% | 114.194%
17 | O=C(c1ccc(C(=O)N2CCC(N3CCCC3)CC2)c(Nc2ccccc2)c1)N1CCC(N2CCCC2)CC1 | 128.422% | 96.2949% | 123.486% | 97.1366% | 108.091% | 96.0319% | 93.2966% | 98.6037% | 102.524% | 98.4049% | 104.115% | 98.5481%
18 | Cc1ccc2nc(NCCN)c3ncc(C)n3c2c1.O=C(O)C(F)(F)F.O=C(O)C(F)(F)F | 230.973% | 67.6056% | 101.148% | 93.4293% | 94.0156% | 112.188% | 113.649% | 154.019% | 82.3615% | 114.809% | 73.2048% | 109.465%
